{"source": "patent US10071957B2", "about": "“N-substituted benzamides and methods of use thereof” (GENENTECH, INC., priority 2012, dated 2018)", "biological_target": "hNaV1.7 (Homo sapiens (Human), UniProt Q15858)", "sequence (Q15858 whole entry, looked up)": "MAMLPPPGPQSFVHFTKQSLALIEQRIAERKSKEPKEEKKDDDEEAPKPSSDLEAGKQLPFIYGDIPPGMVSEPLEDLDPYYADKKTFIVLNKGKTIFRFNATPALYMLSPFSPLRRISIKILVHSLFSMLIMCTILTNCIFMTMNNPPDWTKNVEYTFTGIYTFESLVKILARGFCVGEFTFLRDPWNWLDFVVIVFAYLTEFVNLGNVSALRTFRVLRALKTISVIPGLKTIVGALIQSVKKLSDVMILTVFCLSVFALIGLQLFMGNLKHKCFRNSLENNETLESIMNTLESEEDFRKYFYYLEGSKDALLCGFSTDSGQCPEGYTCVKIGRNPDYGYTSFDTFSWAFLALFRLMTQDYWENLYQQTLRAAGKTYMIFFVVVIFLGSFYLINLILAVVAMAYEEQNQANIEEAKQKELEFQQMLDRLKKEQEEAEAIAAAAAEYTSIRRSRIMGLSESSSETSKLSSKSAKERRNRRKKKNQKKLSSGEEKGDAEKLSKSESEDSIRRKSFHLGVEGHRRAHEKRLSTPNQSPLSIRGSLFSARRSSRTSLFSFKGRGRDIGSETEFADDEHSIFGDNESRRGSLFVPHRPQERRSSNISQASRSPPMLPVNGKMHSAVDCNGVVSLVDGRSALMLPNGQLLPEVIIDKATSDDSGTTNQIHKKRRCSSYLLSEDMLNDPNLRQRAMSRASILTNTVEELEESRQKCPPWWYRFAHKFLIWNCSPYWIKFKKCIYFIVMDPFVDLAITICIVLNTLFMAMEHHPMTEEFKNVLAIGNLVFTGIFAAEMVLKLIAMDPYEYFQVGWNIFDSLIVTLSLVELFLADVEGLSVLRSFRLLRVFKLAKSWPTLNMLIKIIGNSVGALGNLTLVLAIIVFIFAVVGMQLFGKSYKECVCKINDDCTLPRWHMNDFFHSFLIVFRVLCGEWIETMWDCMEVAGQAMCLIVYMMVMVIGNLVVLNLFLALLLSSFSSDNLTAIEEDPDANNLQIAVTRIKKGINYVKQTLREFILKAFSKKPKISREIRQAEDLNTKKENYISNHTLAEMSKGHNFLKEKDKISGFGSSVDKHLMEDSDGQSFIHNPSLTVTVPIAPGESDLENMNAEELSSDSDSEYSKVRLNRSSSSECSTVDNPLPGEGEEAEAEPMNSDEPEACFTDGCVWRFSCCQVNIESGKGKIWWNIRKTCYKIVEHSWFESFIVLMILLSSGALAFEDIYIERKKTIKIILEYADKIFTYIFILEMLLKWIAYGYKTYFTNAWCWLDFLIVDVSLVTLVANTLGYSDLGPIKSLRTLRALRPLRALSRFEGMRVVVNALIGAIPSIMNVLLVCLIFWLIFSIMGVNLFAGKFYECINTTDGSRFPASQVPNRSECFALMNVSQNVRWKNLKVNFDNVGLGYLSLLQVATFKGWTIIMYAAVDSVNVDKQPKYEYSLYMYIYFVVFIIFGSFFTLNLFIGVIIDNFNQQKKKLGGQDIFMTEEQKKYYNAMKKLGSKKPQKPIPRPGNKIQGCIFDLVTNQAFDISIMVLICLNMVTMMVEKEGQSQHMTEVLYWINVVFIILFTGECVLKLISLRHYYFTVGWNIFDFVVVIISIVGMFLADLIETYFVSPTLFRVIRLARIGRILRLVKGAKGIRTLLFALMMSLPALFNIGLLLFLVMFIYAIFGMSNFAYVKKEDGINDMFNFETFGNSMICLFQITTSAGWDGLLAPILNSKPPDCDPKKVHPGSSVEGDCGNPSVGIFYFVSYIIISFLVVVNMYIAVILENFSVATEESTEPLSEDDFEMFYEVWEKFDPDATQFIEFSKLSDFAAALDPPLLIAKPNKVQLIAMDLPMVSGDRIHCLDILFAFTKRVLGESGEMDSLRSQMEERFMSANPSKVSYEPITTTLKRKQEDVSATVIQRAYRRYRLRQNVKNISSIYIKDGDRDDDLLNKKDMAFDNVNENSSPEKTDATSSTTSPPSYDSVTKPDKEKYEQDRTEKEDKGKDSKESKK", "sequence (Q07699 whole entry partner, looked up)": "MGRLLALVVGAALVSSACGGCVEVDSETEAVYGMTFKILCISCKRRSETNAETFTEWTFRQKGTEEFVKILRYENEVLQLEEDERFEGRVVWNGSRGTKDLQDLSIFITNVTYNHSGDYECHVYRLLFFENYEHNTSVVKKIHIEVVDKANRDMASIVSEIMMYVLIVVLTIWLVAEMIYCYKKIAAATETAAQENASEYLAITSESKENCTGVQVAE", "assay": "Competitive binding of tritiated compound to membranes from cells expressing hNav1.7 and the β1 subunit", "conditions": "100 pM [3H]compound, 18 h, room temperature; read-out: NaV1.7 395 Membrane Binding IC50", "experimental": "Tritiated compound binding to membranes isolated from cells that heterologously express hNav1.7 and the β1 subunit\nPreparation of membranes containing recombinantly expressed sodium channels: Frozen recombinant cell pellets were thawed on ice and diluted to 4 times the cell pellet weight with ice cold 50 mM Tris HCl, pH 7.4 buffer. The cell suspensions were homogenized on ice using a motorized glass dounce homogeniser. Homogenates were further diluted 8.4 times with ice cold 50 mM Tris HCl, pH 7.4 buffer and then centrifuged at 200×g at 4° C. for 15 min. The supernatants were collected and centrifuged at 10000×g at 4° C. for 50 min. The pellets were then re-suspended in 100 mM NaCl, 20 mM Tris HCl, pH 7.4 buffer containing 1% v/v protease inhibitors (Calbiochem) and re-homogenized on ice. The homogenized membranes were then processed through a syringe equipped with a 26 gauge needle. Protein concentrations were determined by Bradford Assay and the membranes were stored at −80° C.\nRadioligand Binding Studies: Saturation experiments. A representative compound of formula (I) was tritiated. Three tritiums were incorporated in place of methyl hydrogens to generate [^3H]compound. Binding of this radioligand was performed in 5 mL borosilicate glass test tubes at room temperature. Binding was initiated by adding membranes to increasing concentrations of [^3H]compound in 100 mM NaCl, 20 mM Tris HCl, pH 7.4 buffer containing 0.01% w/v bovine serum albumin (BSA) for 18 h. Non-specific binding was determined in the presence of 1 μM unlabelled compound. After 18 h, the reactants were filtered through GF/C glass fiber filters presoaked in 0.5% w/v polyethylene imine. Filters were washed with 15 mL ice cold 100 mM NaCl, 20 mM Tris HCl, pH 7.4 buffer containing 0.25% BSA to separate bound from free ligand. [^3H]compound bound to filters was quantified by liquid scintillation counting.\nCompetitive binding experiments. Binding reactions were performed in 96-well polypropylene plates at room temperature for 18 h. In 360 μL, membranes were incubated with 100 pM [^3H]compound and increasing concentrations of Test Compound. Non-specific binding was defined in the presence of 1 μM unlabelled compound. Reactions were transferred and filtered through 96-well glass fiber/C filter plates presoaked with 0.5% polyethylene imine. The filtered reactions were washed 5 times with 200 μL ice cold buffer containing 0.25% BSA. Bound radioactivity was determined by liquid scintillation counting.\nData Analysis: For saturation experiments, non-specific binding was subtracted from total binding to provide specific binding and these values were recalculated in terms of pmol ligand bound per mg protein. Saturation curves were constructed and dissociation constants were calculated using the single site ligand binding model: Beq=(Bmax*X)/(X+Kd), where Beq is the amount of ligand bound at equilibrium, Bmax is the maximum receptor density, Kd is the dissociation constant for the ligand, and X is the free ligand concentration. For competition studies percent inhibition was determined and IC50 values were calculated using a 4 parameter logistic model (% inhibition=(A+((B−A)/(1+((x/C)^D)))) using XLfit, where A and B are the maximal and minimum inhibition respectively, C is the IC50 concentration and D is the (Hill) slope."}
{"smiles": "CCCCN(CCCC)S(=O)(=O)NC(=O)c1cc(Cl)c(Oc2cnc(OCC(C)C)c(Cl)c2)cc1F", "note": "[Preparation 13, 5-chloro-4-((5-chloro-6-isobutoxypyridin-3-yl)oxy)-N-(N,N-dibutylsulfamoyl)-2-fluorobenzamide]", "values": [{"measurement": "IC50", "result": 3640, "unit": "nM"}]}
{"smiles": "CC(C)COc1ncc(Oc2cc(F)c(C(=O)NS(=O)(=O)NCc3ccccc3)cc2Cl)cc1Cl", "note": "[Preparation 18, N-(N-benzyl-sulfamoyl)-5-chloro-4-((5-chloro-6-isobutoxy-pyridin-3-yl)oxy)-2-fluorobenzamide]", "values": [{"measurement": "IC50", "result": 4180, "unit": "nM"}]}
{"smiles": "CC(C)COc1ncc(Oc2cc(F)c(C(=O)NS(=O)(=O)N(C)Cc3ccccc3)cc2Cl)cc1Cl", "note": "[Preparation 19, N-(N-benzyl-N-methylsulfamoyl)-5-chloro-4-((5-chloro-6-isobutoxypyridin-3-yl)oxy)-2-fluoro-benzamide]", "values": [{"measurement": "IC50", "result": 4440, "unit": "nM"}]}
{"smiles": "CC(C)COc1ncc(Oc2cc(F)c(C(=O)NS(=O)(=O)NCc3cccnc3)cc2Cl)cc1Cl", "note": "[Preparation 22, 5-chloro-4-((5-chloro-6-isobutoxypyridin-3-yl)oxy)-2-fluoro-N-(N-(pyridin-3-ylmethyl)sulfamoyl) benzamide 2,2,2-trifluoroacetate]", "values": [{"measurement": "IC50", "result": 3580, "unit": "nM"}]}
{"smiles": "CC(C)COc1ncc(Oc2cc(F)c(C(=O)NS(=O)(=O)NC(=O)OC(C)(C)C)cc2Cl)cc1Cl", "note": "[Preparation 29, tert-butyl N-(5-chloro-4-((5-chloro-6-isobutoxy-pyridin-3-yl)oxy)-2-fluorobenzoyl) sulfamoylcarbamate]", "values": [{"measurement": "IC50", "result": 905, "unit": "nM"}]}
{"smiles": "CN(C)S(=O)(=O)NC(=O)c1cc(F)c(Oc2ccc(OC(F)(F)F)c(Cl)c2)cc1F", "note": "[Preparation 31, 4-(3-chloro-4-(tri-fluoromethoxy)phenoxy)-N-(N,N-dimethylsulfamoyl)-2,5-difluoro-benzamide]", "values": [{"measurement": "IC50", "result": 860, "unit": "nM"}]}
{"smiles": "CNS(=O)(=O)NC(=O)c1cc(Cl)c(Oc2cnc(OCC(F)(F)C(F)F)c(Cl)c2)cc1F", "note": "[Preparation 33, 5-chloro-4-((5-chloro-6-(2,2,3,3-tetrafluoro-propoxy)pyridin-3-yl)oxy)-2-fluoro-N-(N-methylsulfamoyl) benzamide]", "values": [{"measurement": "IC50", "result": 22.8, "unit": "nM"}]}
{"smiles": "NS(=O)(=O)NC(=O)c1cc(Cl)c(Oc2cnc(Cl)c(Cl)c2)cc1F", "note": "[Preparation 34, 5-chloro-4-((5,6-dichloropyridin-3-yl)oxy)-2-fluoro-N-sulfamoylbenzamide]", "values": [{"measurement": "IC50", "result": 4680, "unit": "nM"}]}
{"smiles": "CN(C)S(=O)(=O)NC(=O)c1cc(Cl)c(Oc2cnc(Cl)c(Cl)c2)cc1F", "note": "[Preparation 35, 5-chloro-4-((5,6-dichloropyridin-3-yl)oxy)-N-(N,N-dimethylsulfamoyl)-2-fluorobenzamide]", "values": [{"measurement": "IC50", "result": 665, "unit": "nM"}]}
{"smiles": "NS(=O)(=O)NC(=O)c1cc(Cl)c(COc2cnc(OCC(F)(F)C(F)F)c(Cl)c2)cc1F", "note": "[Preparation 36, 5-chloro-4-(((5-chloro-6-(2,2,3,3-tetrafluoropropoxy)pyridin-3-yl)oxy)methyl)-2-fluoro-N-sulfamoylbenzamide]", "values": [{"measurement": "IC50", "result": 460, "unit": "nM"}]}
{"smiles": "NS(=O)(=O)NC(=O)c1cc(Cl)c(Oc2cnc(OCC(F)(F)C(F)F)c(Cl)c2)cc1F", "note": "[Preparation 37, 5-chloro-4-((5-chloro-6-(2,2,3,3-tetrafluoro-propoxy)pyridin-3-yl)oxy)-2-fluoro-N-sulfamoylbenzamide]", "values": [{"measurement": "IC50", "result": 171, "unit": "nM"}]}
{"smiles": "CNS(=O)(=O)NC(=O)c1cc(Cl)c(Oc2cnc(Cl)c(Cl)c2)cc1F", "note": "[Preparation 38, 5-chloro-4-((5,6-dichloropyridin-3-yl)oxy)-2-fluoro-N-(N-methyl-sulfamoyl)benzamide]", "values": [{"measurement": "IC50", "result": 628, "unit": "nM"}]}
{"smiles": "CN(C)S(=O)(=O)NC(=O)c1cc(Cl)c(COc2cnc(OCC(F)(F)C(F)F)c(Cl)c2)cc1F", "note": "[Preparation 39, 5-chloro-4-(((5-chloro-6-(2,2,3,3-tetrafluoro-propoxy)pyridin-3-yl)oxy)methyl)-N-(N,N-dimethyl-sulfamoyl)-2-fluoro-benzamide]", "values": [{"measurement": "IC50", "result": 216, "unit": "nM"}]}
{"smiles": "CC(C)COc1ncc(Oc2cc(F)c(C(=O)NS(=O)(=O)N(C)C)cc2Cl)cc1C(F)(F)F", "note": "[Preparation 40, 5-chloro-N-(N,N-dimethylsulfamoyl)-2-fluoro-4-((6-iso-butoxy-5-(trifluoro-methyl)pyridin-3-yl)oxy)benzamide]", "values": [{"measurement": "IC50", "result": 71, "unit": "nM"}]}
{"smiles": "CC(C)COc1ncc(Oc2cc(F)c(C(=O)NS(=O)(=O)N3CCN(C(=O)OC(C)(C)C)CC3)cc2Cl)cc1Cl", "note": "[Preparation 41, tert-butyl 4-(N-(5-chloro-4-((5-chloro-6-isobutoxy-pyridin-3-yl)oxy)-2-fluorobenzoyl)sulfamoyl)piperazine-1-carboxylate]", "values": [{"measurement": "IC50", "result": 3800, "unit": "nM"}]}
{"smiles": "CC(C)COc1ncc(Oc2cc(F)c(C(=O)NS(=O)(=O)N3CCNCC3)cc2Cl)cc1Cl", "note": "[Preparation 42, 5-chloro-4-((5-chloro-6-isobutoxypyridin-3-yl)oxy)-2-fluoro-N-(piperazin-1-ylsulfonyl)benzamide]", "values": [{"measurement": "IC50", "result": 856, "unit": "nM"}]}
{"smiles": "CN(C)S(=O)(=O)NC(=O)c1cc(Cl)c(Oc2ccc(C#N)cc2)cc1F", "note": "[Preparation 43, 5-chloro-4-(4-cyano-phenoxy)-N-(N,N-dimethylsulfamoyl)-2-fluorobenzamide]", "values": [{"measurement": "IC50", "result": 10000, "unit": "nM"}]}
{"smiles": "CN(C)S(=O)(=O)NC(=O)c1cc(Cl)c(Oc2ccc(-c3nccs3)cc2)cc1F", "note": "[Preparation 44, 5-chloro-N-(N,N-dimethylsulfamoyl)-2-fluoro-4-(4-(thiazol-2-yl)phenoxy) benzamide]", "values": [{"measurement": "IC50", "result": 869, "unit": "nM"}]}
{"smiles": "O=C(NS(=O)(=O)NC1CCC1)c1cc(Cl)c(Oc2ccc(OC(F)(F)F)c(Cl)c2)cc1F", "note": "[Preparation 45, 5-chloro-4-(3-chloro-4-(trifluoromethoxy)phenoxy)-N-(N-cyclobutylsulfamoyl)-2-fluorobenzamide]", "values": [{"measurement": "IC50", "result": 108, "unit": "nM"}]}
{"smiles": "CC(C)COc1ncc(Oc2cc(F)c(C(=O)NS(=O)(=O)N3CCC3)cc2Cl)cc1Cl", "note": "[Preparation 46, N-(azetidin-1-ylsulfonyl)-5-chloro-4-((5-chloro-6-iso-butoxypyridin-3-yl)oxy)-2-fluorobenzamide]", "values": [{"measurement": "IC50", "result": 9.2, "unit": "nM"}]}
{"smiles": "CN(C)S(=O)(=O)NC(=O)c1cc(Cl)c(Oc2ccc3ccccc3c2)cc1F", "note": "[Preparation 47, 5-chloro-N-(N,N-dimethylsulfamoyl)-2-fluoro-4-(naphthalen-2-yloxy)benzamide]", "values": [{"measurement": "IC50", "result": 4070, "unit": "nM"}]}
{"smiles": "NS(=O)(=O)NC(=O)c1cc(Cl)c(Oc2ccc3ccccc3c2)cc1F", "note": "[Preparation 48, 5-chloro-2-fluoro-4-(naphthalen-2-yloxy)-N-sulfamoyl-benzamide]", "values": [{"measurement": "IC50", "result": 138, "unit": "nM"}]}
{"smiles": "CN(C)S(=O)(=O)NC(=O)c1cc(Cl)c(Oc2ccc(F)c(F)c2)cc1F", "note": "[Preparation 49, 5-chloro-4-(3,4-difluorophenoxy)-N-(N,N-dimethyl-sulfamoyl)-2-fluorobenzamide]", "values": [{"measurement": "IC50", "result": 3470, "unit": "nM"}]}
{"smiles": "NS(=O)(=O)NC(=O)c1cc(Cl)c(Oc2ccc(F)c(F)c2)cc1F", "note": "[Preparation 50, 5-chloro-4-(3,4-difluorophenoxy)-2-fluoro-N-sulfamoylbenzamide]", "values": [{"measurement": "IC50", "result": 656, "unit": "nM"}]}
{"smiles": "CN(C)S(=O)(=O)NC(=O)c1cc(Cl)c(Oc2cccc3ccccc23)cc1F", "note": "[Preparation 52, 5-chloro-N-(N,N-dimethylsulfamoyl)-2-fluoro-4-(naphthalen-1-yloxy)benzamide]", "values": [{"measurement": "IC50", "result": 5200, "unit": "nM"}]}
{"smiles": "NS(=O)(=O)NC(=O)c1cc(Cl)c(Oc2cccc3ccccc23)cc1F", "note": "[Preparation 53, 5-chloro-2-fluoro-4-(naphthalen-1-yloxy)-N-sulfamoylbenzamide]", "values": [{"measurement": "IC50", "result": 23000, "unit": "nM"}]}
{"smiles": "CN(C)S(=O)(=O)NC(=O)c1cc(Cl)c(Oc2cccc3[nH]ccc23)cc1F", "note": "[Preparation 55, 4-((1H-indol-4-yl)oxy)-5-chloro-N-(N,N-dimethyl-sulfamoyl)-2-fluoro-benzamide]", "values": [{"measurement": "IC50", "result": 20000, "unit": "nM"}]}
{"smiles": "CN(C)S(=O)(=O)NC(=O)c1cc(Cl)c(Oc2ccc3cc[nH]c3c2)cc1F", "note": "[Preparation 56, 4-((1H-indol-6-yl)oxy)-5-chloro-N-(N,N-dimethyl-sulfamoyl)-2-fluoro-benzamide]", "values": [{"measurement": "IC50", "result": 990, "unit": "nM"}]}
{"smiles": "COc1ccc(CCOc2cc(F)c(C(=O)NS(=O)(=O)N(C)C)cc2Cl)cc1", "note": "[Preparation 57, 5-chloro-N-(N,N-dimethylsulfamoyl)-2-fluoro-4-(4-methoxy-phenethoxy)benzamide]", "values": [{"measurement": "IC50", "result": 2400, "unit": "nM"}]}
{"smiles": "CN(C)S(=O)(=O)NC(=O)c1cc(Cl)c(OCCc2ccccc2)cc1F", "note": "[Preparation 58, 5-chloro-N-(N,N-dimethylsulfamoyl)-2-fluoro-4-phenethoxy-benzamide]", "values": [{"measurement": "IC50", "result": 1300, "unit": "nM"}]}
